The source of these data is patent US12168012B2, “NLRP3 inflammasome inhibitors” (Novartis AG, priority 2018, dated 2024).

Experiment [1] deals with NLRP3 inflammasome. Briefly: IL-1β secretion assay. Format: cell-based. Particulars: Homo sapiens, THP-1, 3 h, PMA-differentiated THP-1 cells, 15 μM nigericin, HTRF. The essentials: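 PMA-differentiated THP-1 cells stimulated with nigericin to trigger NLRP3-dependent IL-1β secretion, measured by HTRF after 3 h. Viability/pyroptosis monitored with PrestoBlue. IC50 from logistic fit of % inhibition vs concentration with Hill coefficient.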

The test system of experiment [2] is NF-kB-dependent TNF-α secretion. Description: TNF-α secretion assay (counterscreen). To be noted: Homo sapiens; THP-1 cells, Pam3CSK4-stimulated, 3 hours, HTRF. Format: cell-based. The essentials:
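Undifferentiated THP-1 cells, rested overnight, given compound then stimulated with 1 μg/mL LPS or 100 ng/mL Pam3CSK4 for 3 hours. Supernatant TNF-α measured by HTRF; IC50 from four-parameter logistic fit of % inhibition versus concentration, with viability monitored.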
In general terms: A counterscreen serves to expose hits that act by an unwanted route or on another target.

pIC50: −log10 of the molar value.

Broadly, the pIC50 is the IC50 on a negative log10 scale, so that one unit is a factor of ten. The low end stands for a large IC50, the high end for a small IC50. Take `CC(C)(O)c1nn(CC(=O)N[C@@H]2CCCNC2)c(=O)c2cc3sc(Cl)cc3n12` [Ex 79, (R)-2-(2-Chloro-5-(2-hydroxypropan-2-yl)-8-oxothieno[2′,3′:4,5]pyrrolo[1,2-d][1,2,4]triazin-7(8H)-yl)-N-(piperidin-3-yl)acetamide]: the pIC50 was 6.61 in experiment [1] and less than 4.00 in experiment [2].
`CC(C)(O)c1nn(CC(=O)N[C@@H]2CCC[C@H](O)C2)c(=O)c2cc3sc(Cl)cc3n12` [Ex 81, 2-(2-Chloro-5-(2-hydroxypropan-2-yl)-8-oxothieno[2′,3′:4,5]pyrrolo[1,2-d][1,2,4]triazin-7(8H)-yl)-N-((1R,3S)-3-hydroxycyclohexyl)acetamide]: the pIC50 in experiment [1] was 8.41; in experiment [2], less than 4.00.
In the same order, the values of `CC(C)(O)c1nn(CC(=O)N[C@@H]2CCCN(CC(F)(F)F)C2)c(=O)c2cc3sc(Cl)cc3n12` [Ex 82, (R)-2-(2-Chloro-5-(2-hydroxypropan-2-yl)-8-oxothieno[2′,3′:4,5]pyrrolo[1,2-d][1,2,4]triazin-7(8H)-yl)-N-(1-(2,2,2-trifluoroethyl)piperidin-3-yl)acetamide] are 7.37 and less than 4.00.
In the same order, the values of `CC(C)(O)c1nn(CC(=O)N[C@@H]2CCC[C@@](C)(O)C2)c(=O)c2cc3sc(Cl)cc3n12` [Ex 83, 2-(2-Chloro-5-(2-hydroxypropan-2-yl)-8-oxothieno[2′,3′:4,5]pyrrolo[1,2-d][1,2,4]triazin-7(8H)-yl)-N-((1R,3R)-3-hydroxy-3-methylcyclohexyl)acetamide] are 7.79 and less than 4.00.
In the same order, the values of `CC(C)c1nn(CC(=O)N[C@@H]2CCCNC2)c(=O)c2cc3scnc3n12` [Ex 88, (R)-2-(5-Isopropyl-8-oxothiazolo[5′,4′:4,5]pyrrolo[1,2-d][1,2,4]triazin-7(8H)-yl)-N-(piperidin-3-yl)acetamide] are 7.56 and less than 4.00.
For `CC(C)c1nn(CC(=O)N[C@@H]2CCCN(CCF)C2)c(=O)c2cc3scnc3n12` [Ex 89, (R)-N-(1-(2-Fluoroethyl)piperidin-3-yl)-2-(5-isopropyl-8-oxothiazolo[5′,4′:4,5]pyrrolo[1,2-d][1,2,4]triazin-7(8H)-yl)acetamide], the negative-log IC50 (pIC50) was 7.61 in experiment [1] and less than 4.00 in experiment [2].
Turning to `CC(C)c1nn(CC(=O)N[C@@H]2CCC[C@@](C)(O)C2)c(=O)c2cc3scnc3n12` [Ex 90, N-((1R,3R)-3-Hydroxy-3-methylcyclohexyl)-2-(5-isopropyl-8-oxothiazolo[5′,4′:4,5]pyrrolo[1,2-d][1,2,4]triazin-7(8H)-yl)acetamide], the pIC50 in experiment [1] was 7.22; in experiment [2], less than 4.00.
The corresponding values for `CC(C)c1nn(CC(=O)N[C@@H]2CCC[C@H](O)C2)c(=O)c2cc3scnc3n12` [Ex 91, N-((1R,3S)-3-Hydroxycyclohexyl)-2-(5-isopropyl-8-oxothiazolo[5′,4′:4,5]pyrrolo[1,2-d][1,2,4]triazin-7(8H)-yl)acetamide] are 8.72 and less than 4.00.
In the same order, the values of `Cc1nc2c(cc3c(=O)n(CC(=O)NC4CC4)nc(C(C)C)n32)s1` [Ex 96, N-Cyclopropyl-2-(5-isopropyl-2-methyl-8-oxothiazolo[5′,4′:4,5]pyrrolo[1,2-d][1,2,4]triazin-7(8H)-yl)acetamide] are 5.98 and less than 4.48.
Regarding `CC(C)c1nn(CC(=O)N[C@H]2CCOC2)c(=O)c2cc3sc(Cl)cc3n12` [Ex 99, (S)-2-(2-Chloro-5-isopropyl-8-oxothieno[2′,3′:4,5]pyrrolo[1,2-d][1,2,4]triazin-7(8H)-yl)-N-(tetrahydrofuran-3-yl)acetamide], the results for the pIC50 in experiment [1] and in experiment [2] were 6.27 and less than 4.00, respectively.
Turning to `CC(C)c1nn(CC(=O)N[C@@H]2CCOC2)c(=O)c2cc3sc(Cl)cc3n12` [Ex 100, (R)-2-(2-Chloro-5-isopropyl-8-oxothieno[2′,3′:4,5]pyrrolo[1,2-d][1,2,4]triazin-7(8H)-yl)-N-(tetrahydrofuran-3-yl)acetamide], the figures for the pIC50 in experiment [1] and in experiment [2] were 6.74 and less than 4.00, respectively.
In the same order, the values of `CC(C)c1nn(CC(=O)N[C@@H]2CCNC2)c(=O)c2cc3sc(Cl)cc3n12` [Ex 103, (R)-2-(2-Chloro-5-isopropyl-8-oxothieno[2′,3′:4,5]pyrrolo[1,2-d][1,2,4]triazin-7(8H)-yl)-N-(pyrrolidin-3-yl)acetamide] are 6.72 and less than 4.00.
Turning to `CC(C)c1nn(CC(=O)NC2(CO)CC2)c(=O)c2cc3sc(Cl)cc3n12` [Ex 111, 2-(2-Chloro-5-isopropyl-8-oxothieno[2′,3′:4,5]pyrrolo[1,2-d][1,2,4]triazin-7(8H)-yl)-N-(1-(hydroxymethyl)cyclopropyl)acetamide], the values for the pIC50 in experiment [1] and in experiment [2] were 6.95 and less than 4.00, respectively.
In the same order, the values of `COC(=O)C12CC(NC(=O)Cn3nc(C(C)C)n4c(cc5sc(Cl)cc54)c3=O)(C1)C2` [Ex 113, Methyl 3-(2-(2-chloro-5-isopropyl-8-oxothieno[2′,3′:4,5]pyrrolo[1,2-d][1,2,4]triazin-7(8H)-yl)acetamido)bicyclo[1.1.1]pentane-1-carboxylate] are 8.24 and less than 4.00.
In the same order, the values of `CC(C)c1nn(CC(=O)NC23CC4CC(CC(O)(C4)C2)C3)c(=O)c2cc3sc(Cl)cc3n12` [Ex 114, 2-(2-Chloro-5-isopropyl-8-oxothieno[2′,3′:4,5]pyrrolo[1,2-d][1,2,4]triazin-7(8H)-yl)-N-((1S,3R,5S)-3-hydroxyadamantan-1-yl)acetamide] are 6.53 and less than 4.96.
The corresponding values for `CC(C)c1nn(CC(=O)NC23CC(N)(C2)C3)c(=O)c2cc3sc(Cl)cc3n12` [Ex 115, N-(3-Aminobicyclo[1.1.1]pentan-1-yl)-2-(2-chloro-5-isopropyl-8-oxothieno[2′,3′:4,5]pyrrolo[1,2-d][1,2,4]triazin-7(8H)-yl)acetamide] are 6.76 and less than 4.00.
`CC(C)c1nn(CC(=O)N[C@@H]2CCCN(C3CC3)C2)c(=O)c2cc3sc(Cl)cc3n12` [Ex 124, (R)-2-(2-Chloro-5-isopropyl-8-oxothieno[2′,3′:4,5]pyrrolo[1,2-d][1,2,4]triazin-7(8H)-yl)-N-(1-cyclopropylpiperidin-3-yl)acetamide]: the pIC50 in experiment [1] is 9.05; in experiment [2] it was less than 4.00.
The corresponding values for `CC(C)c1nn(CC(=O)N[C@@H]2CCCN(C3CC3)C2)c(=O)c2cc3scnc3n12` [Ex 127, (R)-N-(1-Cyclopropylpiperidin-3-yl)-2-(5-isopropyl-8-oxothiazolo[5′,4′:4,5]pyrrolo[1,2-d][1,2,4]triazin-7(8H)-yl)acetamide] are 8.38 and less than 4.00.
The corresponding values for `CC(C)c1nn(CC(=O)N[C@@H]2CCCN(C[C@@H](C)O)C2)c(=O)c2cc3sc(Cl)cc3n12` [Ex 128, 2-(2-Chloro-5-isopropyl-8-oxothieno[2′,3′:4,5]pyrrolo[1,2-d][1,2,4]triazin-7(8H)-yl)-N—((R)-1-((R)-2-hydroxypropyl)piperidin-3-yl)acetamide] are 8.35 and less than 4.00.
In the same order, the values of `CC(C)c1nn(CC(=O)N[C@@H]2CCCN(C[C@H](C)O)C2)c(=O)c2cc3sc(Cl)cc3n12` [Ex 129, 2-(2-Chloro-5-isopropyl-8-oxothieno[2′,3′:4,5]pyrrolo[1,2-d][1,2,4]triazin-7(8H)-yl)-N-((R)-1-((S)-2-hydroxypropyl)piperidin-3-yl)acetamide] are 8.51 and less than 4.00.
For `CC(C)c1nn(CC(=O)N[C@@H]2CCCN(CC(C)(C)O)C2)c(=O)c2cc3sc(Cl)cc3n12` [Ex 130, (R)-2-(2-Chloro-5-isopropyl-8-oxothieno[2′,3′:4,5]pyrrolo[1,2-d][1,2,4]triazin-7(8H)-yl)-N-(1-(2-hydroxy-2-methylpropyl)piperidin-3-yl)acetamide], the pIC50 in experiment [1] is 7.69; in experiment [2], less than 4.00.
In the case of `CC(C)c1nn(CC(=O)N[C@@H]2CCCN(CC3(O)CCC3)C2)c(=O)c2cc3sc(Cl)cc3n12` [Ex 131, (R)-2-(2-Chloro-5-isopropyl-8-oxothieno[2′,3′:4,5]pyrrolo[1,2-d][1,2,4]triazin-7(8H)-yl)-N-(1-((1-hydroxycyclobutyl)methyl)piperidin-3-yl)acetamide], the pIC50 in experiment [1] was 7.75; in experiment [2], less than 4.48.
In the same order, the values of `CC(C)c1nn(CC(=O)N[C@@H]2CCCN(CCO)C2)c(=O)c2cc3sc(Cl)cc3n12` [Ex 133, (R)-2-(2-Chloro-5-isopropyl-8-oxothieno[2′,3′:4,5]pyrrolo[1,2-d][1,2,4]triazin-7(8H)-yl)-N-(1-(2-hydroxyethyl)piperidin-3-yl)acetamide] are 7.69 and less than 4.00.
In the same order, the values of `CC(C)c1nn(CC(=O)N[C@@H]2CCCN(CC3CC3)C2)c(=O)c2cc3sc(Cl)cc3n12` [Ex 134, (R)-2-(2-Chloro-5-isopropyl-8-oxothieno[2′,3′:4,5]pyrrolo[1,2-d][1,2,4]triazin-7(8H)-yl)-N-(1-(cyclopropylmethyl)piperidin-3-yl)acetamide] are 9.15 and less than 4.00.
